This assay concerns panel of 51 human breast cell lines. Put plainly: Breast Cell Line Panel B proliferation assay, panel summary. Type of assay: cell-based. The conditions noted are these: for IC50: 51 human breast cell lines. As for the experimental part:
From the stock concentration, 8 serial dilutions (1:5) were made with DMSO.
Generally, about 5 μl was added to the 100 μl of cell culture during the treatment, and each dose was replicated in three wells.
Day −1: Plate cells in 100 μl volume in 96 well plate. • Note: Cell number seeded adjusted for growth characteristics, so that at time of assay for proliferation following three-day drug treatment, the control wells should still be in log-growth phase (sub-confluent). Day 0: Drug added to plate for treatment. • A time 0 plate was processed for the proliferation assay to establish a baseline reading at time when drug was added.
LBNL are following the protocols set up by the NCI/NIH DTP Human Tumor Cell Line Screen Process (http://dtp.nci.nih.gov/branches/btb/ivclsp.html) and summarized below.
[(Ti−Tz)/(C−Tz)]×100 for concentrations for which Ti>/=Tz
[(Ti−Tz)/Tz]×100 for concentrations for which Ti<Tz. • C: control growth (vehicle control growth) • Tz: reading at time 0 • Ti: test growth in the presence of drug at the nine concentration levels gIC50: Growth inhibition of 50% is calculated from
[(Ti−Tz)/(C−Tz)]×100=50, • which is the drug concentration resulting in a 50% reduction in the net growth in control cells during the drug incubation. TGI: Total growth inhibition is calculated from
Ti=Tz. • The drug concentration resulting in total growth inhibition (down to the ‘time 0’ baseline). LC50: Net loss of cell growth at 50% is calculated from
[(Ti−Tz)/Tz]×100=−50. • The concentration of drug resulting in a 50% reduction in the cell number at the end of the drug treatment as compared to that at the beginning (time 0) indicating a net loss of cells following treatment.
Values are calculated for each of these three parameters if the level of activity is reached; however, if the effect is not reached or is exceeded, the value for that parameter is expressed as greater or less than the maximum or minimum concentration tested.

Structures are written as SMILES. Where two headings read alike, the source gives them in different places.

Consider `COc1ncc(-c2ccc3nccc(-c4ccnnc4)c3c2)cc1NS(=O)(=O)c1ccc(F)cc1F` [Compound B, 2,4-difluoro-N-{2-(methyloxy)-5-[4-(4-pyridazinyl)-6-quinolinyl]-3-pyridinyl}benzenesulfonamide], for which the IC50 is 28.9 nM (read-out: average gIC50), 1.1 to 398 nM (read-out: gIC50s across the panel (range)) and 10.4 nM (read-out: overall median gIC50). For the same compound, where the note is “number of lines / lines tested”, the “tumor cell lines with gIC50>30 nM” value is reported as 16/51. In addition, the “tumor cell lines with gIC50s<3 nM” value (number of lines / lines tested) is reported as 7/51.

The values above are taken from patent publication US20130317037A1, “METHOD OF ADMINISTRATION AND TREATMENT” (GlaxoSmithKline Intellectual Property Development Limited, priority 2010, published 2013).
